Laboratory results reported in publication PMC7347136 (PLoS ONE, 2020).
Where “and” joins values, the source holds several entries; their conditions need not be identical. Equal values may be shown once. Read-outs that look alike come from different tables or passages of the source.

Tests used:
CDK2/cyclin A = biological target: T1, CDK2/cyclin A (Homo sapiens, UniProt P24941); test: Carna IC50 determination; type: biochemical; conditions: around Km [ATP]
T1 construct: purchased Carna Biosciences
Method: (§1) IC50 values were determined from a 10-point concentration curve using ATP concentrations approximating Km values. […] The percentage inhibition of each test solution was calculated, which allowed the IC50 value to be determined from concentration versus percentage inhibition curves by fitting to a four parameter logistic curve.

CDK3/cyclin E1 = biological target: T2, CDK3/cyclin E1 (Homo sapiens, UniProt Q00526); test: Carna IC50 determination; type: biochemical; conditions: around Km [ATP]
T2 construct: purchased Carna Biosciences
Method: as §1

CDK4/cyclin D3 = biological target: T3, CDK4/cyclin D3 (Homo sapiens, UniProt P11802); test: Carna IC50 determination; type: biochemical; conditions: around Km [ATP]
T3 construct: made in house
Method: as §1

CDK5/p25 = biological target: T4, CDK5/p25 (Homo sapiens, UniProt Q00535); test: Carna IC50 determination; type: biochemical; conditions: around Km [ATP]
T4 construct: purchased Carna Biosciences
Method: as §1

CLK1 = biological target: T5, CLK1 (Homo sapiens, UniProt P49759); test: Carna IC50 determination; type: biochemical; conditions: around Km [ATP]
T5 construct: purchased Carna Biosciences
Method: as §1

CLK2 = biological target: T6, CLK2 (Homo sapiens, UniProt P49760); test: Carna IC50 determination; type: biochemical; conditions: around Km [ATP]
T6 construct: purchased Carna Biosciences
Method: as §1

EOL-1 = test: Resazurin reduction cell viability assay; type: cell-based; conditions: Homo sapiens
Method: (§2) Solid tumor cell lines were seeded in 100 μl medium into 96-well plates at an appropriate cell number determined by a cell dilution assay (Cal51–2000 cells/well; Colo205, MCF10A and 184A1–3000 cells/well and MDA-MB-468, HCC1954–4000 cells/well). AML suspension cells were seeded in 96-well plates at approximately 3000 cells per well. Cells were incubated overnight at 37°C, 5% CO2. The following day, 100 μl fresh medium containing increasing concentrations of appropriate compound was added and the cells were incubated for up to 72 h at 37°C, 5% CO2. For pulse treatment of solid (adherent) tumor cell lines, medium was aspirated and replaced with fresh drug-free medium. For pulse treatment of suspension lines, plates were centrifuged at 478 xg for 5 min at the end of the incubation period with compound, medium containing compound was carefully aspirated and replaced with fresh compound-free medium. A total of 72 h after the start of treatment, 20 μl of a 10X stock of resazurin sodium salt (Sigma-Aldrich, Dorset, UK) prepared in medium was added to the cells and incubated for up to 3 h. […] was measured on the Wallac Victor plate reader (Cambridge, UK) at 544–595 nm. IC50/70/90 calculations were determined in XLFit.

Kasumi-1 = test: Resazurin reduction cell viability assay; type: cell-based; conditions: Homo sapiens
Method: as §2

184A1 = test: Resazurin reduction cell viability assay; type: cell-based, human
Method: as §2

A2780 = test: Resazurin reduction cell viability assay; type: cell-based, human; conditions: 6 h pulse
Method: as §2

A549 = test: Resazurin reduction cell viability assay; type: cell-based, human
Method: as §2

Colo205 = test: Resazurin reduction cell viability assay; type: cell-based, human; conditions: Homo sapiens, COLO 205, 72 h, 72 h continuous treatment; read-out: Colo205 IC50 ± SD
Method: as §2

HEL = test: Resazurin reduction cell viability assay; type: cell-based, human
Method: as §2

KG-1 = test: Resazurin reduction cell viability assay; type: cell-based, human
Method: as §2

MCF10A = test: Resazurin reduction cell viability assay; type: cell-based, human
Method: as §2

MDA-MB-231 = test: Resazurin reduction cell viability assay; type: cell-based, human
Method: as §2

MOLM-13 = test: Resazurin reduction cell viability assay; type: cell-based, human
Method: as §2

MV4-11 = test: Resazurin reduction cell viability assay; type: cell-based, human
Method: as §2

OCI-AML2 = test: Resazurin reduction cell viability assay; type: cell-based, human
Method: as §2

OCI-AML5 = test: Resazurin reduction cell viability assay; type: cell-based, human
Method: as §2

PC3 = test: Resazurin reduction cell viability assay; type: cell-based, human
Method: as §2

PL21 = test: Resazurin reduction cell viability assay; type: cell-based, human
Method: as §2

THP-1 = test: Resazurin reduction cell viability assay; type: cell-based, human
Method: as §2

[1] = read-out: 6 h pulse IC50 ± SD, 6 h pulse then 66 h release

T2 sequence (Q00526 whole entry): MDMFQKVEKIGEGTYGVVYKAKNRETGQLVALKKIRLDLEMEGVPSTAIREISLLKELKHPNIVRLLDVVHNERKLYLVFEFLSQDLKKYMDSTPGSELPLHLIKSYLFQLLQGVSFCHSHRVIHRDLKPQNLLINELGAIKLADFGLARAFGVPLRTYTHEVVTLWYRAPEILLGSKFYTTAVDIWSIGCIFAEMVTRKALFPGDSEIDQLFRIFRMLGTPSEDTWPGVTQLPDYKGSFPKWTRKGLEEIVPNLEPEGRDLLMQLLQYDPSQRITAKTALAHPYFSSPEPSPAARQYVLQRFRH
T2 sequence (P24864 whole entry partner): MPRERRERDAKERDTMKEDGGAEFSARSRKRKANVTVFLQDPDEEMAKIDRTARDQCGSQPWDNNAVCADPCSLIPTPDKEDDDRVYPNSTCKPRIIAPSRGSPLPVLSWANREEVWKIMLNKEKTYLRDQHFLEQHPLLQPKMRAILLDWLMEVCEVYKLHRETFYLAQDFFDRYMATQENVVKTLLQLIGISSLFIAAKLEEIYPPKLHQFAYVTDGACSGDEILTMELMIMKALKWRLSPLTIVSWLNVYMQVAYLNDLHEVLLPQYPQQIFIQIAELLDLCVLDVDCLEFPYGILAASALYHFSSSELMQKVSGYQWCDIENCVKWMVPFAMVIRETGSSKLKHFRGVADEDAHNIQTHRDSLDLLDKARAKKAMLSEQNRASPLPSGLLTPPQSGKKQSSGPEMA
T6 sequence (P49760 whole entry): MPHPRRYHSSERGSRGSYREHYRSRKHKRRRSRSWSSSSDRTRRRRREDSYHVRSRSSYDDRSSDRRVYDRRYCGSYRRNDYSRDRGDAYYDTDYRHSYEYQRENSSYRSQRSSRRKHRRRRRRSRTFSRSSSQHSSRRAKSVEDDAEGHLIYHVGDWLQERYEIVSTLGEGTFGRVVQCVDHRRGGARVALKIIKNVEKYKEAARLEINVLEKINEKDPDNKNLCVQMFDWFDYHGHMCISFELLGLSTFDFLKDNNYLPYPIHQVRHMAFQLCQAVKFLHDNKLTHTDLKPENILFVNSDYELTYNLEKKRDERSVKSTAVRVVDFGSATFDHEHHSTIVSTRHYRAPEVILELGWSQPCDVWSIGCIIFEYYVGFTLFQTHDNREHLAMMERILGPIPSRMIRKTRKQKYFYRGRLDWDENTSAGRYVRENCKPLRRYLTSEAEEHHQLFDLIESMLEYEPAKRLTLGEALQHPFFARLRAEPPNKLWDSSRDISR
T4 sequence (Q00535 whole entry): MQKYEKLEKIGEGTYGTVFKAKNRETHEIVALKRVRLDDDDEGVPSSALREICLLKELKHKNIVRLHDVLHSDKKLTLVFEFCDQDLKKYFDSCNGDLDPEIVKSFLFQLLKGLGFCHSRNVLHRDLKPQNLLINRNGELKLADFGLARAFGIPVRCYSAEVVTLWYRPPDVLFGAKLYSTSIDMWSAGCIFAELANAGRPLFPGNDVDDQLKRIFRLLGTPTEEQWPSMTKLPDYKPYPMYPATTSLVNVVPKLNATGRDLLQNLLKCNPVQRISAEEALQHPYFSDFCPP
T4 sequence (Q15078 99-307 partner limits assumed): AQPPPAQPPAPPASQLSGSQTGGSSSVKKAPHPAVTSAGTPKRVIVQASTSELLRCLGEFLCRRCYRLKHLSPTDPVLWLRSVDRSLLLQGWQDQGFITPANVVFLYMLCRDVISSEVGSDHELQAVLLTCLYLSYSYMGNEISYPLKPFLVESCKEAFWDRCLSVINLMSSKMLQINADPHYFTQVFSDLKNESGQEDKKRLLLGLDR
T3 sequence (P11802 whole entry): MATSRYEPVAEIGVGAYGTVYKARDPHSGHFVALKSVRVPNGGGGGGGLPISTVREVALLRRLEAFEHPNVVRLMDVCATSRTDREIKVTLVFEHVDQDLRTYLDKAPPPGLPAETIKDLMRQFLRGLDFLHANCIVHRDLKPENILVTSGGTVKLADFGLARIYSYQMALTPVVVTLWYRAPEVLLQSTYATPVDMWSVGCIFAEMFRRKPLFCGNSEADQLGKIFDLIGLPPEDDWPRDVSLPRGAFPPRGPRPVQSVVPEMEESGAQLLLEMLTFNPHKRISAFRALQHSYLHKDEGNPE
T3 sequence (P30281 whole entry partner): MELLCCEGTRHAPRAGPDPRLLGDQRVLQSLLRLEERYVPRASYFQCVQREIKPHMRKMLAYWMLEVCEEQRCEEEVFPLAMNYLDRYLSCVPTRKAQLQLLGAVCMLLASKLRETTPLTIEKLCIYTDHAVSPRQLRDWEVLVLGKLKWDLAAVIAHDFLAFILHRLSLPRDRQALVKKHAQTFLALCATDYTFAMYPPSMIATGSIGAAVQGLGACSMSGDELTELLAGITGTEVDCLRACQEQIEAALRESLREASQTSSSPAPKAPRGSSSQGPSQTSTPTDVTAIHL
T5 sequence (P49759 whole entry): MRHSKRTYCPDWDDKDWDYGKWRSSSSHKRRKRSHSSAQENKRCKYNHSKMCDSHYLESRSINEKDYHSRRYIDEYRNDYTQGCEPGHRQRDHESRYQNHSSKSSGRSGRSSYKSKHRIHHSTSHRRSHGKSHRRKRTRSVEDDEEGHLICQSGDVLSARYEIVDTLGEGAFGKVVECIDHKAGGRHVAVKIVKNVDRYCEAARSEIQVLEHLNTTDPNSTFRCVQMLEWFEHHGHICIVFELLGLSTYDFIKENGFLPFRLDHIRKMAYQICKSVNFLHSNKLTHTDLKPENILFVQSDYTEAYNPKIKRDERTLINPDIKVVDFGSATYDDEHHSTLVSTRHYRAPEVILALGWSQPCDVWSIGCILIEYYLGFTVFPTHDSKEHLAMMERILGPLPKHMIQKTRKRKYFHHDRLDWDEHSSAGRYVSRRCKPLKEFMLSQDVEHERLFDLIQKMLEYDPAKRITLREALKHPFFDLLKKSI

In the case of `CC[C@H](Nc1nc(NCc2cnc(C)cc2C)c2ncn(C(C)C)c2n1)[C@@H](C)O` [Fadraciclib, 2-pentanol, 3-[[6-[[(4,6-dimethyl-3-pyridinyl)methyl]amino]-9-(1-methylethyl)-9Hpurin-2-yl]amino]-, (2R,3S)], the IC50 (CDK2/cyclin A) is reported as 4.5 ± 0.4 nM, the IC50 (CDK3/cyclin E1) is reported as 29 nM and 28.9 nM and the IC50 (CDK4/cyclin D3) is reported as 232 ± 27 nM. For the same molecule, the IC50 (CDK5/p25) was 20.5 ± 1 nM, the IC50 (CLK1) was 549 ± 81 nM and the IC50 (CLK2) was 252 ± 8 nM. For the same molecule, the IC90 (EOL-1; EOL1, 6 h pulse then 66 h release) was 560 nM, the IC50 (EOL-1; EOL1, 72 h continuous, read-out: 72 h continuous IC50 ± SD) was 370 ± 50 nM and the IC50 (EOL-1; EOL1, read-out: 6 h pulse IC50 ± SD, 6 h pulse then 66 h release) was 350 ± 50 nM. It also gave an IC90 (Kasumi-1; 6 h pulse then 66 h release) of 570 nM, an IC50 (Kasumi-1; 72 h continuous, read-out: 72 h continuous IC50 ± SD) of 230 ± 40 nM and an IC50 (Kasumi-1; [1]) of 320 ± 50 nM. It also gave an IC50 (184A1; Homo sapiens, 184A1, 72 h, 184A1, continuous 72 h, read-out: continuous IC50 ± SD) of 250 ± 10 nM, an IC50 (184A1; Homo sapiens, 184A1, read-out: 8 h pulse IC50 ± SD, 184A1 (non-malignant), 8 h pulse, read at 72 h) of 3900 nM and an IC50 (184A1; read-out: 8 h pulse IC50 ± SD, 184A1 (non-malignant), 8 h pulse, read at 72 h) of 3870 ± 2100 nM. The “IC50, short pulse” value (A2780) was “submicromolar”, the “sensitivity, 6 h pulse versus continuous 72 h” value (A549) was “sensitive to fadraciclib only after more prolonged treatment” and the IC50 (Colo205) was 310 nM. It also gave an IC50 (HEL; Homo sapiens, 72 h, 72 h continuous, read-out: 72 h continuous IC50 ± SD) of 530 ± 200 nM, an IC50 (HEL; Homo sapiens, read-out: 6 h pulse IC50 ± SD, HEL, 6 h pulse then 66 h release) of 5120 nM and an IC50 (HEL; [1]) of 5110 ± 880 nM. The IC50 (KG-1; Homo sapiens, KG-1, 72 h, KG-1, 72 h continuous, read-out: 72 h continuous IC50 ± SD) was 350 ± 30 nM, the IC50 (KG-1; Homo sapiens, KG-1, read-out: 6 h pulse IC50 ± SD, KG-1, 6 h pulse then 66 h release) was 500 nM and the IC90 (KG-1; Homo sapiens, KG-1, 6 h pulse then 66 h release) was 3700 nM. For the same molecule, the IC50 (KG-1; read-out: 6 h pulse IC50 ± SD, KG-1, 6 h pulse then 66 h release) was 470 ± 120 nM, the IC50 (MCF10A; Homo sapiens, MCF-10A, 72 h, MCF10A, continuous 72 h, read-out: continuous IC50 ± SD) was 400 ± 30 nM and the IC50 (MCF10A; Homo sapiens, MCF-10A, read-out: 8 h pulse IC50 ± SD, MCF10A (non-malignant), 8 h pulse, read at 72 h) was 3900 nM. For the same molecule, the IC50 (MCF10A; read-out: 8 h pulse IC50 ± SD, MCF10A (non-malignant), 8 h pulse, read at 72 h) was 3890 ± 1040 nM, the “sensitivity, 6 h pulse versus continuous 72 h” value (MDA-MB-231) was “sensitive to fadraciclib only after more prolonged treatment” and the IC50 (MOLM-13; Homo sapiens, MOLM-13, 72 h, MOLM-13, 72 h continuous, read-out: 72 h continuous IC50 ± SD) was 240 ± 50 nM. It also gave an IC50 (MOLM-13; Homo sapiens, MOLM-13, read-out: 6 h pulse IC50 ± SD, MOLM-13, 6 h pulse then 66 h release) of 260 nM, an IC90 (MOLM-13; Homo sapiens, MOLM-13, 6 h pulse then 66 h release) of 400 nM and an IC50 (MOLM-13; read-out: 6 h pulse IC50 ± SD, MOLM-13, 6 h pulse then 66 h release) of 250 ± 50 nM. The IC50 (MV4-11; Homo sapiens, MV4-11, 72 h, MV4-11, 72 h continuous, read-out: 72 h continuous IC50 ± SD) was 260 ± 80 nM, the IC50 (MV4-11; Homo sapiens, MV4-11, read-out: 6 h pulse IC50 ± SD, MV4-11, 6 h pulse then 66 h release) was 500 nM and the IC90 (MV4-11; Homo sapiens, MV4-11, 6 h pulse then 66 h release) was 920 nM. For the same molecule, the IC50 (MV4-11; read-out: 6 h pulse IC50 ± SD, MV4-11, 6 h pulse then 66 h release) was 510 ± 40 nM, the IC50 (OCI-AML2; Homo sapiens, OCI-AML2, 72 h, OCI-AML2, 72 h continuous, read-out: 72 h continuous IC50 ± SD) was 220 ± 30 nM and the IC50 (OCI-AML2; Homo sapiens, OCI-AML2, read-out: 6 h pulse IC50 ± SD, OCI-AML2, 6 h pulse then 66 h release) was 530 nM. For the same molecule, the IC90 (OCI-AML2; Homo sapiens, OCI-AML2, 6 h pulse then 66 h release) was 1800 nM, the IC50 (OCI-AML2; read-out: 6 h pulse IC50 ± SD, OCI-AML2, 6 h pulse then 66 h release) was 550 ± 70 nM and the IC50 (OCI-AML5; Homo sapiens, OCI-AML-5, 72 h, OCI-AML5, 72 h continuous, read-out: 72 h continuous IC50 ± SD) was 310 ± 130 nM. The IC90 (OCI-AML5; Homo sapiens, OCI-AML-5, OCI-AML5, 6 h pulse then 66 h release) was 18500 nM, the IC50 (OCI-AML5; Homo sapiens, OCI-AML-5, read-out: 6 h pulse IC50 ± SD, OCI-AML5, 6 h pulse then 66 h release) was 1440 nM and the IC50 (OCI-AML5; read-out: 6 h pulse IC50 ± SD, OCI-AML5, 6 h pulse then 66 h release) was 1450 ± 50 nM. The “sensitivity, 6 h pulse versus continuous 72 h” value (PC3) was “sensitive to fadraciclib only after more prolonged treatment”, the IC50 (PL21; Homo sapiens, PL-21, 72 h, PL21, 72 h continuous, read-out: 72 h continuous IC50 ± SD) was 340 ± 90 nM and the IC90 (PL21; Homo sapiens, PL-21, PL21, 6 h pulse then 66 h release) was 9920 nM. The IC50 (PL21; Homo sapiens, PL-21, read-out: 6 h pulse IC50 ± SD, PL21, 6 h pulse then 66 h release) was 2550 nM, the IC50 (PL21; read-out: 6 h pulse IC50 ± SD, PL21, 6 h pulse then 66 h release) was 2540 ± 2710 nM and the IC50 (THP-1; Homo sapiens, THP-1, 72 h, THP-1, 72 h continuous, read-out: 72 h continuous IC50 ± SD) was 570 ± 180 nM. For the same molecule, the IC50 (THP-1; Homo sapiens, THP-1, 72 h, THP-1, value the 7 x 7 combination matrix spans, 72 h, read-out: IC50 value of each compound (single agent)) was 430 nM, the IC50 (THP-1; Homo sapiens, THP-1, read-out: 6 h pulse IC50 ± SD, THP-1, 6 h pulse then 66 h release) was 1100 nM and the IC90 (THP-1; Homo sapiens, THP-1, 6 h pulse then 66 h release) was 6800 nM. The IC50 (THP-1; read-out: 6 h pulse IC50 ± SD, THP-1, 6 h pulse then 66 h release) was 1080 ± 230 nM.
